Reference: the supplement of paper PMC13380429

Key:
Conditions in all cases: 72 h
[1] = system: Calu-3; assay: cell viability relative to DMSO; higher = less toxic
[2] = system: U2OS; assay: as above
[3] = system: Caco-2; assay: as above
[4] = system: Vero E6; assay: as above
[5] = system: HepG2; assay: as above
[6] = system: Calu-3; assay: relative viability EC50 (midpoint between 100% and the lowest measured viability); higher = less toxic
[7] = system: U2OS; assay: as above
[8] = system: Caco-2; assay: as above
[9] = system: Vero E6; assay: as above
[10] = system: Calu-3; assay: drug sensitivity score (DSS) for viability; higher = more toxic; extreme values may be limits of the assay
[11] = system: U2OS; assay: as above
[12] = system: Caco-2; assay: as above
[13] = system: Vero E6; assay: as above
[14] = system: HepG2; assay: as above
[15] = system: HepG2; assay: relative viability EC50 (midpoint between 100% and the lowest measured viability); higher = less toxic

Compound | cell viability ([1]; 1 nM) | cell viability ([1]; 10 nM) | cell viability ([1]; 100 nM) | cell viability ([1]; 1000 nM) | cell viability ([1]; 10000 nM) | cell viability ([2]; 1 nM) | cell viability ([2]; 10 nM) | cell viability ([2]; 100 nM) | cell viability ([2]; 1000 nM) | cell viability ([2]; 10000 nM) | cell viability ([3]; 1 nM) | cell viability ([3]; 10 nM) | cell viability ([3]; 100 nM) | cell viability ([3]; 1000 nM) | cell viability ([3]; 10000 nM) | cell viability ([4]; 1 nM) | cell viability ([4]; 10 nM) | cell viability ([4]; 100 nM) | cell viability ([4]; 1000 nM) | cell viability ([4]; 10000 nM) | cell viability ([5]; 1 nM) | cell viability ([5]; 10 nM) | cell viability ([5]; 100 nM) | cell viability ([5]; 1000 nM) | cell viability ([5]; 10000 nM) | relative viability EC50 [6] | relative viability EC50 [7] | relative viability EC50 [8] | relative viability EC50 [9] | drug sensitivity score [10] | drug sensitivity score [11] | drug sensitivity score [12] | drug sensitivity score [13] | drug sensitivity score [14] | relative viability EC50 [15]
CNC(=O)c1ccc(Nc2ncc(C(F)(F)F)c(NCc3nccnc3N(C)S(C)(=O)=O)n2)cc1 [defactinib] | 97.5% | 86.2% | 106% | 88.1% | 95.6% | 98.2% | 100% | 93.8% | 96.5% | 75% | 95.4% | 101% | 90.1% | 100% | 89.9% | 106% | 99.8% | 101% | 84.2% | 76% | 100% | 95.2% | 107% | 81.4% | 68.1% | > 10 µM | > 10 µM | > 10 µM | > 10 µM | 0 | 1.5 | 0 | 2.6 | 3.6 | 
CCOc1ccc2nc3cc(N)ccc3c(N)c2c1 [ethacridine-lactate-monohydrate] |  |  |  |  |  | 106% | 105% | 104% | 105% | 55.6% | 97.4% | 104% | 101% | 110% | 95.4% | 102% | 101% | 100% | 102% | 97.2% | 115% | 131% | 124% | 96.6% | 25.4% |  |  | > 10 µM | > 10 µM |  | 1.9 | 0 | 0 | 4.6 | 2.82 µM
CC(=O)O[C@]1(C(C)=O)CC[C@H]2[C@@H]3CCC4=CC(=O)CC[C@]4(C)[C@H]3CC[C@@]21C [hydroxyprogesterone-acetate] | 103% | 115% | 91.3% | 95.7% | 93.8% | 99.2% | 101% | 106% | 99.9% | 98.7% | 95.8% | 98.6% | 90.2% | 104% | 98.9% |  |  |  |  |  | 98.7% | 95.5% | 110% | 90.3% | 102% | > 10 µM | > 10 µM | > 10 µM |  | 0 | 0 | 0 |  | 0 | > 10 µM
N=C(N)c1ccc(/C=C/c2ccc(C(=N)N)cc2O)cc1 [hydroxystilbamidine] | 110% | 107% | 101% | 102% | 97.3% | 98% | 95.6% | 96.2% | 98.6% | 106% | 97.7% | 99.2% | 103% | 104% | 93.7% | 96.7% | 100% | 101% | 97.5% | 89.4% | 108% | 96.6% | 93.1% | 95.5% | 56.2% | > 10 µM | > 10 µM | > 10 µM | > 10 µM | 0 | 0 | 0 | 0 | 3 | 
C#Cc1cccc(Nc2ncnc3cc4c(cc23)OCCOCCOCCO4)c1 [icotinib] | 93.8% | 104% | 90.2% | 66.1% | 50.8% | 96.4% | 95.6% | 98.1% | 93.7% | 96.6% | 104% | 100% | 98.5% | 87.4% | 90.7% | 91.5% | 100% | 92% | 81.8% | 66.9% | 86.4% | 103% | 87.7% | 102% | 99.4% |  | > 10 µM | > 10 µM |  | 7.2 | 0 | 0.8 | 3.5 | 0 | > 10 µM
CS(=O)(=O)CCNCc1ccc(-c2ccc3ncnc(Nc4ccc(OCc5cccc(F)c5)c(Cl)c4)c3c2)o1 [lapatinib] | 102% | 89.6% | 74.2% | 35.8% | 24.5% | 98.4% | 93.6% | 94% | 92.3% | 74.9% | 100% | 93.7% | 90.1% | 77.3% | 62.8% | 96.9% | 100% | 92.4% | 74.6% | 51.5% | 98% | 107% | 104% | 112% | 89.1% | 0.176 µM |  |  |  | 15.1 | 1.4 | 4.8 | 5.5 | 0 | > 10 µM
Cc1ccccc1C(OCCN(C)C)c1ccccc1 (centres undefined) [orphenadrine] | 99.5% | 103% | 106% | 102% | 92.9% | 106% | 97.7% | 95.5% | 97.5% | 97.8% | 99.9% | 93.6% | 94.3% | 98.7% | 95.5% |  |  |  |  |  | 102% | 108% | 90.7% | 105% | 109% | > 10 µM | > 10 µM | > 10 µM |  | 0 | 0 | 0 |  | 0 | > 10 µM
CCCCCCCCCCCCCCCCCCCCCCCCC(=O)O [pentacosanoic-acid] | 91.9% | 97.1% | 92.5% | 92.2% | 102% | 98.3% | 98.5% | 97.4% | 95.9% | 106% | 99.2% | 106% | 103% | 96.8% | 101% |  |  |  |  |  | 112% | 109% | 98% | 102% | 111% | > 10 µM | > 10 µM | > 10 µM |  | 0 | 0 | 0 |  | 0 | > 10 µM
O=C1c2ccccc2C(=O)C1c1ccccc1 [phenindione] | 108% | 85.4% | 100% | 95.2% | 106% | 105% | 97.9% | 103% | 99.3% | 102% | 88.5% | 89.3% | 99.4% | 94.1% | 101% |  |  |  |  |  | 89.4% | 110% | 93.7% | 98.5% | 101% | > 10 µM | > 10 µM | > 10 µM |  | 0 | 0 | 0 |  | 0 | > 10 µM
C=Cc1cc(O)cc2nc(-c3ccc(O)c(F)c3)oc12 [prinaberel] | 96.8% | 104% | 95.3% | 95.9% | 93.4% | 100% | 101% | 94.6% | 98.6% | 96.9% | 95.5% | 99.7% | 88.7% | 90% | 91.9% | 103% | 99.9% | 98% | 100% | 95.5% | 102% | 104% | 93.4% | 103% | 74.6% | > 10 µM | > 10 µM | > 10 µM | > 10 µM | 0 | 0 | 0.7 | 0 | 0.8 | 
CC(C)c1nc(N(C)S(C)(=O)=O)nc(-c2ccc(F)cc2)c1/C=C/[C@@H](O)C[C@@H](O)CC(=O)O [rosuvastatin] | 98.5% | 91.3% | 101% | 105% | 103% | 101% | 96.7% | 102% | 99.5% | 98% | 103% | 105% | 100% | 101% | 83.7% | 101% | 97.9% | 99.6% | 100% | 72.7% | 109% | 110% | 98.4% | 106% | 96.1% | > 10 µM | > 10 µM | > 10 µM |  | 0 | 0 | 0.3 | 1.1 | 0 | > 10 µM
Cc1ccc(C(=O)Nc2ccc(S(=O)(=O)O)c3cc(S(=O)(=O)O)cc(S(=O)(=O)O)c23)cc1NC(=O)c1cccc(NC(=O)Nc2cccc(C(=O)Nc3cc(C(=O)Nc4ccc(S(=O)(=O)O)c5cc(S(=O)(=O)O)cc(S(=O)(=O)O)c45)ccc3C)c2)c1 [suramin] | 96.3% | 101% | 94.8% | 103% | 111% | 99.9% | 94.7% | 99.4% | 96.7% | 100% | 93.5% | 94.5% | 99% | 90.9% | 97.5% |  |  |  |  |  | 97.4% | 109% | 102% | 103% | 91.8% | > 10 µM | > 10 µM | > 10 µM |  | 0 | 0 | 0 |  | 0 | > 10 µM
CC1(C)S[C@@H]2[C@H](NC(=O)[C@H](C(=O)O)c3ccsc3)C(=O)N2[C@H]1C(=O)O [ticarcillin] | 91.5% | 106% | 109% | 97.7% | 103% | 101% | 100% | 98.6% | 98.1% | 101% | 103% | 97.6% | 91.1% | 102% | 93.6% |  |  |  |  |  | 106% | 97.3% | 87.7% | 102% | 88.8% | > 10 µM | > 10 µM | > 10 µM |  | 0 | 0 | 0 |  | 0 | > 10 µM
Cn1cncc1[C@@](N)(c1ccc(Cl)cc1)c1ccc2c(c1)c(-c1cccc(Cl)c1)cc(=O)n2C [tipifarnib] | 88.7% | 92.1% | 81.6% | 63.2% | 54.5% | 95.3% | 96.7% | 88.9% | 70.9% | 53.9% | 86.5% | 90.7% | 80.3% | 73.1% | 59.9% | 103% | 94.2% | 95.1% | 82.7% | 76.9% | 98.4% | 95.2% | 74.3% | 63.5% | 23.3% |  |  |  | > 10 µM | 8.9 | 6.4 | 7.8 | 2.5 | 10.6 | 0.532 µM
NC(=S)N/N=C/c1ncccc1N [triapine] | 106% | 94.1% | 101% | 101% | 70.5% | 96.8% | 99.6% | 95.8% | 102% | 72.8% | 97.2% | 98.7% | 95.3% | 92.1% | 68.6% | 97% | 98.3% | 98.1% | 92.3% | 50.3% | 103% | 97.7% | 119% | 93% | 30.6% |  |  |  |  | 1.2 | 1 | 2.4 | 3.9 | 5 | 2.34 µM
